Columns and labels:
[1] = tested on: hairless mice (Hos: HR-1); assay: TEWL of the skin (Tewameter) after oral administration, animal test; type: in vivo; conditions: three weeks, positive control
Description: (§1) A skin-beautifying effect of milk-derived phospholipid was evaluated using the compositions containing milk-derived phospholipid obtained in Examples 1 and 2. In experiments 13-week-old hairless mice (Hos: HR-1) were used. […] A water content and TEWL of the skin of the tail and the base of the tail of the mice were measured at the initiation of the test and the completion of the test. Values obtained at the completion of the test were calculated by setting each value obtained at the initiation of the test as 100, and the obtained values were provided as a rate of increase. A water content of the skin and TEWL were measured with a Corneometer and a Tewameter manufactured by Courage +Khazaka electronic GmbH, respectively.

[2] = tested on: hairless mice (Hos: HR-1); assay: Water content of the skin (Corneometer) after oral administration, animal test; type: in vivo; conditions: three weeks, positive control
Description: as §1

[3] = 3 mg sphingomyelin per kg body weight, oral once daily, value at initiation = 100

sphingomyelin
Rate of TEWL increase [1, 3]: 86% | TEWL, times that of group A ([1]; 3 mg/kg sphingomyelin solely): 0.85 times | Rate of water content increase [2, 3]: 124% | water content of the skin, times as much as the water content of the skin of group A ([2]; 3 mg/kg sphingomyelin solely): 1.25 times
